Experimental data published in patent US11129782B2, “Derivatives of PPD useful for coloring hair and skin” (National University of Singapore, priority 2017, dated 2021).
pIC50: −log10 of the molar value. Values joined by “and” are separate entries in the source; they are usually repeats but may differ in a detail not shown here. Equal values may be shown once.

How the values were obtained:
[1] = Skin permeation in vertical Franz diffusion cells; assay type: in vitro ADME, porcine; details: 8 h; for % Parent compound Penetrated (mean) / % converted to metabolite (mean) / recovery at 8 h, 1 % w/v: 1% W/V applied; for recovery at 8 h, 1 % w/v: pig, read-out: % Parent compound Recovery (mean); for Penetration profile PPD vs derivatives (times less than PPD): ratio of PPD penetration to that of the compound
Experimental: Porcine ears were generously provided by the NUS Department of Surgery. The ears were frozen at −80° C. until use (up to 3 months) and thawed at room temperature on the day preceding the experiment. Prior to the experiment, the skin was separated from the cartilage and dermatomed to a thickness of ˜1.0 mm using an Acculan™ 3Ti dermatome (Aesculap, Inc., B. Braun, USA).
The PPD and derivatives were dissolved in deionized water at 1% w/v. The PPD and PPD derivatives 1-5 solutions were purged with argon gas to minimize oxidation of the donor solution.
Skin penetration studies were carried out using vertical Franz diffusion cells (PermeGear, USA) immersed in a 37° C. water bath. The donor and receptor volumes were 900 µL and 5 mL, respectively; the mean surface area of penetration was 0.64 cm^2. Upon insertion of the skin pieces into the Franz cells, the skin was equilibrated for 45 min with PBS in the receptor compartment. After equilibration, the skin's trans-epidermal water loss (TEWL) was measured using an Aquaflux AF300 (Biox, UK) to assess the integrity of the skin's stratum corneum barrier. The donor solution, consisting of PPD or derivative 1-5 (n=3 Franz cells each), was then added to the donor compartment and the penetration experiments were conducted for 8 h. The receptor solutions were continuously stirred with magnetic stirrers. At fixed time points, aliquots of 200 μL were taken from the receptor solution of each cell and the receptor solution topped up with 200 μL of fresh PBS. At the end of the experiment, the donor and receptor solutions were removed and the cells dismantled. For the purpose of mass balance on the PPD, PPD derivatives 1-5 the skin pieces and swabs of their outer surfaces were collected and stored in acetonitrile for PPD or derivative 1-5 extraction. The donor solution as well as PBS used to thoroughly wash each part of the Franz cells were also collected.
PPD, PPD derivatives 1-5 and metabolite concentrations in all permeation and mass balance samples were measured by LCMS. PPD steady state fluxes and permeability coefficients were calculated by fitting the solution to Fick's second law of diffusion at the steady state to the linear part of each experimental cumulative amount curve.
The validated method LCMS was applied to quantify PPD, PPD derivative 1-5 and metabolites from skin permeation study samples. FIGS. 3 and 4 show LCMS spectra for the identification of PPD and PPD derivatives 1 and 2 and metabolites from skin permeation study experiment.

HaCaT cells = test: In vitro cell cytotoxicity (MTT) assay on HaCaT cells; assay type: cell-based, human; details: for pIC50: 72 h incubation, MTT
Description: HaCaT (human, adult, low calcium, high temperature, human adult skin keratinocytes) cells were obtained from the IMB (Institute of Medical Biology) Skin Cell Bank. Fetal bovine serum (FBS), Dulbecco's minimum essential medium (DMEM) and trypsin EDTA solution were purchased from GE healthcare life sciences, Utah. Penicillin/streptomycin, dimethyl sulfoxide (DMSO), and phosphate buffered saline (PBS) were from Fisher Scientific (Singapore). Para-phenylenediamine (PPD) was purchased from Sigma Aldrich (Singapore). PPD analogues such as Dimer, trimer, ethyl hexyl para-phenylenediamine (EHPPD), hexyl para-phenylenediamine (HPPD), Bandrowski base (BB) were synthesized in house.
Cell viability was essentially determined using the MTT assay as described in the literature. The HaCaT cells were grown in DMEM with 10% FBS and 1% penicillin/streptomycin. The cells in T-75 cm^2 culture flasks were incubated with 5% CO2 at 37° C. in a humidified incubator. The HaCaT cells were grown to expected confluency and then they were harvested by trypsinizing the cell with 0.25% trypsin/EDTA and incubated at 37° C. for 5 min to obtain the complete cell detachment. After the incubation, cell pellets were resuspended, and washed twice with 1×PBS. The cell suspension in 1×PBS was counted and adjusted to 1×10^5/mL. A HaCaT keratinocyte suspension (100 μL in 1×PBS) with a cell concentration of 1×10^5 cells/mL) and a test solution (100 μL in milli-Q water) were combined in each well of two 96-well plates. Test solutions with a desired concentration were prepared by serial dilutions of the stock solutions with 1×PBS.
For the cytotoxicity experiment, cells were seeded at a density of 5×10^3 in 200 ul of medium into each well of 96-well plates. Cells were seeded as three sets of four replicates for each concentration. After 24 h of incubation, the cells were washed with PBS and cultured for 72 h with 200 ul of 10% FBS containing DMEM medium, together with the different concentrations of the test compounds ranging from 500 μM to 1.9 μM for PPD and analogues 1-5 and standard in a serial dilution. Then the medium was removed and 100 μl of MTT [3-(4,5-dimethylthiazol-2yl)-2,5-diphenyl-2H-tetrazolium bromide](1 mg/ml) (Alfa Aesar, Singapore) in PBS was added. At the end of 4 h incubation, the plates were removed from the incubator and plates were shaken for 5 min. The absorbance at 570 nm was determined using Bio-Tek plate reader. The cell viability rates were calculated from absorbance readings and represented as percentages of control value (untreated cells).

[2] = test system: cysteine peptide (Ac-RFAACAA-COOH); test: Direct Peptide Reactivity Assay, cysteine peptide; details: for % of Cysteine depletion, Avg / % of Cysteine depletion, Rep 2 / % of Cysteine depletion, Rep 3 / Reactivity Class: 1:10; for % of Cysteine depletion, Rep 1: peptide 0.02 mM : test chemical 0.2 mM (1:10); for Reactivity Class: cysteine
Experimental: For cysteine DPRA, an additional step was performed.
(§1) The mass spectrometric analysis was performed by use of a AB SCIEX QTRAP 5500 tandem mass spectrometry (MS/MS) system (AB SCIEX, Framingham, Mass., USA) operating in triple quadrupole positive mode (ESI+) equipped with an AB Sciex Turbo Ion Spray interface. Acquisition and analysis of data were performed with Analyst software ver. 1.6.2 (Applied Biosystems).

[3] = test system: lysine peptide (Ac-RFAAKAA-COOH); test: Direct Peptide Reactivity Assay, lysine peptide; details: for % of Lysine depletion, Avg / % of Lysine depletion, Rep 2 / % of Lysine depletion, Rep 3 / Reactivity Class: 1:50; for % of Lysine depletion, Rep 1: peptide 0.02 mM : test chemical 1 mM (1:50); for Reactivity Class: lysine
Experimental: as §1

[4] = test system: cysteine and lysine peptides; test: Direct Peptide Reactivity Assay, mean of cysteine and lysine depletion (FIG. 12); details: cysteine 1:10 / lysine 1:50 model
Experimental: Direct reactivity of test chemical to lysine-based synthetic peptide was determined in reactions containing 100 mM ammonium acetate buffer (pH 10.2). The final concentration of lysine peptide was 20 μM in a final reaction volume of 0.3 ml. Direct reactivity of test chemicals to cysteine-based synthetic peptide was determined in 100 mM Sodium Phosphate buffer of pH 7.5.
For the DPRA, incubation mixtures were prepared using each peptide to test compound ratios of both 1:10 for cysteine peptide and 1:50 for lysine peptide, according to Table 19. […] Sample reactions were initiated by adding 3 μl of a test chemical stock solution for cysteine and 15 μl stock solution for lysine peptide. These mixtures were then placed in a temperature-controlled shaking incubator at 25° C.
At each time point (20 mins/24 hours), the incubation mixtures were quenched with 75 μL of 95% ACN/H2O, and mildly vortexed (600 rpm, 3 seconds). For Lysine DPRA experiment, 10 μl of aliquot was diluted with 2% ACN/H2O, vortexed and stored at −80° C. until analysis by LC-MS/MS. For cysteine DPRA, an additional step was performed. 10 μl of cysteine reaction mixture, at time points 20 min and 24 h were diluted in 180 μl of 2% ACN/H2O. To which, a 10 μl aliquot of a 16 mM dithiothreitol solution (prepared in water) was then added, and samples were heated in a 45° C. oven for 30 min, then allowed to cool to room temperature prior to analysis. The peptide depletion (PD) percentage was obtained using this equation.

ILT3 = ILT3 surface expression on THP-1 by flow cytometry; assay type: cell-based, human; details: in comparison to DCNB
Experimental: For cytokine profiling in THP-1, supernatants from wells were collected and then used for cytokine analysis by a Chemokine immunosorbent assay Bio-legend ELISA Max kit. The levels of available IL-8 protein from THP-1 cell supernatants was estimated using this kit which are regulated upon activation of THP-1 model. Surface receptor expression of human CD-86, CD-54, MHC-I and IL-T3 were analyzed by flow cytometry using standard BD FACS analyzer with PE and FITC fluorescent labeled antibodies from Biolegend and e Bioscience.
In order to understand the effect of modified PPD hairdyes on THP-1 immune sensitization, a certain degree of Cytotoxicity at CV75% viable where 25% cell death is required before evaluation of supernatants in THP-1 models for expression of cytokine IL-8 and receptor expression of CD86, CD54, MHC-I and IL-T3 surface receptors upon treatment with standard PPD and modified hair dye compounds. Most allergens show a specific dose-dependent alteration of CD86 and/or CD54 expression or secretion of cytokine profiles. But depending on chemical, the alteration pattern may vary.

Compound: CCCCCCOc1cc(N)ccc1N [PPD derivative 4, 2-hexyloxy-1,4-diaminobenzene]
- % Parent compound Penetrated (mean) [1]: 0.000322%
- % converted to metabolite (mean) [1]: 0.0121%
- recovery at 8 h, 1 % w/v [1]: 94.3%
- Penetration profile PPD vs derivatives (times less than PPD) ([1]; listed as PPD 4): 503.1
- pIC50 (HaCaT cells): 4.46
- pIC50 (HaCaT cells; Homo sapiens, HaCaT, 72 h): 4.46
- % of Cysteine depletion, Avg ([2]; 20 min): 32.8%
- % of Cysteine depletion, Rep 2 ([2]; 20 min): 31.8%
- % of Cysteine depletion, Rep 3 ([2]; 20 min): 33.8%
- % of Cysteine depletion, Rep 1 ([2]; 20 min): 30.8%
- % of Cysteine depletion, Avg ([2]; 24 h): 40.8%
- % of Cysteine depletion, Rep 2 ([2]; 24 h): 41%
- % of Cysteine depletion, Rep 3 ([2]; 24 h): 41.5%
- % of Cysteine depletion, Rep 1 ([2]; 24 h): 40%
- Reactivity Class ([2]; 20 min, listed as Derivative 4): Moderate
- Reactivity Class ([2]; 20 min, listed as derivative 4): moderate
- Reactivity Class ([2]; 24 h): Moderate
- % of Lysine depletion, Avg ([3]; 20 min): 1.1%
- % of Lysine depletion, Rep 2 ([3]; 20 min): 0.845%
- % of Lysine depletion, Rep 3 ([3]; 20 min): 1.41%
- % of Lysine depletion, Rep 1 ([3]; 20 min): 1.13%
- % of Lysine depletion, Avg ([3]; 24 h): 13.4%
- % of Lysine depletion, Rep 2 ([3]; 24 h): 15%
- % of Lysine depletion, Rep 3 ([3]; 24 h): 13.9%
- % of Lysine depletion, Rep 1 ([3]; 24 h): 11.3%
- Reactivity Class ([3]; 20 min): No or Minimal
- Reactivity Class ([3]; 24 h): Low
- Sensitizing potential predicted from mean peptide depletion [4]: moderate sensitizer

Compound: Nc1ccc(Nc2ccc(Nc3ccc(N)cc3)cc2)cc1 [PPD derivative 2, N^1,N^4-bis(4-aminophenyl)-1,4-benzenediamine]
- % Parent compound Penetrated (mean) [1]: 0.00173%
- % converted to metabolite (mean) [1]: 0.008%
- recovery at 8 h, 1 % w/v [1]: 96.4%
- Penetration profile PPD vs derivatives (times less than PPD) ([1]; listed as PPD 2): 93 and 93.6
- Fold increase in cytotoxicity compared to PPD 1 (HaCaT cells): 6 fold
- pIC50 (HaCaT cells; Homo sapiens, HaCaT, 72 h): 5.38
- % of Cysteine depletion, Avg ([2]; 20 min): 54.0%
- % of Cysteine depletion, Rep 2 ([2]; 20 min): 53.6%
- % of Cysteine depletion, Rep 3 ([2]; 20 min): 52.6%
- % of Cysteine depletion, Rep 1 ([2]; 20 min): 55.6%
- % of Cysteine depletion, Avg ([2]; 24 h): 64.1%
- % of Cysteine depletion, Rep 2 ([2]; 24 h): 65.6%
- % of Cysteine depletion, Rep 3 ([2]; 24 h): 61.2%
- % of Cysteine depletion, Rep 1 ([2]; 24 h): 65.6%
- Reactivity Class ([2]; 20 min): High
- Reactivity Class ([2]; 24 h): High
- % of Lysine depletion, Avg ([3]; 20 min): 11.2%
- % of Lysine depletion, Rep 2 ([3]; 20 min): 11.8%
- % of Lysine depletion, Rep 3 ([3]; 20 min): 11.8%
- % of Lysine depletion, Rep 1 ([3]; 20 min): 10.1%
- % of Lysine depletion, Avg ([3]; 24 h): 9.08%
- % of Lysine depletion, Rep 2 ([3]; 24 h): 9.79%
- % of Lysine depletion, Rep 3 ([3]; 24 h): 8.28%
- % of Lysine depletion, Rep 1 ([3]; 24 h): 8.97%
- Reactivity Class ([3]; 20 min): Low
- Reactivity Class ([3]; 24 h): Low
- ILT3 (inhibitory receptor) expression (ILT3): increased
- Sensitizing potential predicted from mean peptide depletion [4]: high sensitizing agents

Compound: CCCCC(CC)COc1cc(N)ccc1N (centres unmarked) [PPD derivative 3, 2-((2-ethylhexyl)oxy)benzene-1,4-diamine]
- % Parent compound Penetrated (mean) [1]: 0.00045%
- % converted to metabolite (mean) [1]: 0.0123%
- recovery at 8 h, 1 % w/v [1]: 94.5%
- Penetration profile PPD vs derivatives (times less than PPD) ([1]; listed as PPD 3): 360
- pIC50 (HaCaT cells; Homo sapiens, HaCaT, 72 h): 4.51
- % of Cysteine depletion, Avg ([2]; 20 min): 31.9%
- % of Cysteine depletion, Rep 2 ([2]; 20 min): 32%
- % of Cysteine depletion, Rep 3 ([2]; 20 min): 31.4%
- % of Cysteine depletion, Rep 1 ([2]; 20 min): 32.4%
- % of Cysteine depletion, Avg ([2]; 24 h): 32.7%
- % of Cysteine depletion, Rep 2 ([2]; 24 h): 31.7%
- % of Cysteine depletion, Rep 3 ([2]; 24 h): 31.8%
- % of Cysteine depletion, Rep 1 ([2]; 24 h): 34.8%
- Reactivity Class ([2]; 20 min, listed as Derivative 3): Moderate
- Reactivity Class ([2]; 20 min, listed as derivative 3): moderate
- Reactivity Class ([2]; 24 h): Moderate
- % of Lysine depletion, Avg ([3]; 20 min): 6.2%
- % of Lysine depletion, Rep 2 ([3]; 20 min): 5.63%
- % of Lysine depletion, Rep 3 ([3]; 20 min): 7.89%
- % of Lysine depletion, Rep 1 ([3]; 20 min): 5.07%
- % of Lysine depletion, Avg ([3]; 24 h): 15.48%
- % of Lysine depletion, Rep 2 ([3]; 24 h): 19.7%
- % of Lysine depletion, Rep 3 ([3]; 24 h): 13.8%
- % of Lysine depletion, Rep 1 ([3]; 24 h): 12.8%
- Reactivity Class ([3]; 20 min): No or Minimal
- Reactivity Class ([3]; 24 h): Low
- Sensitizing potential predicted from mean peptide depletion [4]: moderate sensitizer
